For orientation: melting point means the temperature of the solid-liquid transition. `COc1cc(C(=O)c2c(C)c(OCCO)c3ccccn23)ccc1[N+](=O)[O-]` [Example 80, [1-(2-Hydroxyethoxy)-2-methylindolizin-3-yl](3-methoxy-4-nitrophenyl)methanone]: the melting point was 142 °C.

Source of the values: patent publication US7803811B2, “1,2,3-substituted indolizine derivatives, inhibitors of FGFs, method for preparing them and pharmaceutical compositions containing them” (Sanofi-Aventis, priority 2002, dated 2010).
